Measured values taken from ChEMBL document CHEMBL3228010, “Potential antitumor agents. 29. Quantitative structure-activity relationships for the antileukemic bisquaternary ammonium heterocycles” (J Med Chem, 1979).

Assays:
[1] = organism: Bos taurus; assay: Displacement of ethidium from calf thymus DNA by fluorimetric method
[2] = tested on: L1210; assay: Antitumor activity against mouse L1210 cells […] in ip dosed C3H X DBA2 F1 hybrid mouse on day 0 and dosed at LD10 level once daily on days 1 to 5 assessed as increase in life span relative to control; format: functional
[3] = tested on: L1210; assay: Antitumor activity against mouse L1210 cells […] in ip dosed C3H X DBA2 F1 hybrid mouse on day 0 and dosed once daily on days 1 to 5 assessed as increase in life span relative to control; format: functional
[4] = tested on: Mus musculus; assay: Toxicity in ip dosed C3H X DBA2 F1 hybrid mouse […] with mouse L1210 cells on day 0 and dosed once daily on days 1 to 5 measured after 50 days; format: organism-based; conditions: in vivo, 1200 h
[5] = Displacement of ethidium from poly[d(A)]-poly[d(T)] DNA (unknown origin) by fluorimetric method
[6] = Displacement of ethidium from poly[d(G-C)]-poly[d(G-C)] DNA (unknown origin) by fluorimetric method
[7] = Lipophilic-hydrophilic balance, Rm of the compound by partition chromatography; format: physicochemical
[8] = Displacement of ethidium from poly[d(A-T)]-poly[d(A-T)] DNA by fluorimetric method

| Compound | C50 [1] | log(ILSmax) [2] | D40 [3] | LD10 [4] | C50 [5] | C50 [6] | Rm [7] | C50 [8] |
| --- | --- | --- | --- | --- | --- | --- | --- | --- |
| CCC[n+]1cccc(NC(=O)c2ccc(NC(=O)c3ccc(C(=O)Nc4ccc(C(=O)Nc5ccc[n+](CCC)c5)cc4)cc3)cc2)c1.Cc1ccc(S(=O)(=O)[O-])cc1.Cc1ccc(S(=O)(=O)[O-])cc1 | 0.44 µM | 2.06 | 12.9 mg/kg | 27 mg/kg | 0.12 µM | 0.9 µM | 0.13 | 0.39 µM |
| COc1cc(NC(=O)c2ccc(C(=O)Nc3ccc(C(=O)Nc4ccc[n+](C)c4)c(OC)c3)cc2)ccc1C(=O)Nc1ccc[n+](C)c1.Cc1ccc(S(=O)(=O)[O-])cc1.Cc1ccc(S(=O)(=O)[O-])cc1 | 0.4 µM | 1.78 | 15 mg/kg | 41 mg/kg | 0.18 µM | 0.35 µM | 0.15 | 0.3 µM |
| C[n+]1ccc(Nc2ccc(NC(=O)c3ccc(Nc4cc[n+](C)c5ccc(N)cc45)cc3N)cc2)cc1.[I-].[I-] | 0.49 µM | 2.45 | 2.9 mg/kg | 20 mg/kg | 0.039 µM | 1.1 µM | 0.01 | 0.1 µM |
| C[n+]1cccc(-c2ccc(NC(=O)c3ccc(C(=O)Nc4ccc(-c5ccc(-c6ccc(-c7ccc[n+](C)c7)cc6)cc5)cc4)cc3)cc2)c1.Cc1ccc(S(=O)(=O)[O-])cc1.Cc1ccc(S(=O)(=O)[O-])cc1 | 0.29 µM | 2.1 | 17.9 mg/kg | 65 mg/kg | 0.16 µM | 0.37 µM | -0.75 | 0.22 µM |
| C[n+]1ccccc1Nc1ccc(NC(=O)c2ccc(C(=O)Nc3ccc(Nc4cccc[n+]4C)cc3)cc2)cc1.Cc1ccc(S(=O)(=O)[O-])cc1.Cc1ccc(S(=O)(=O)[O-])cc1 | 5.6 µM | <1.4 | – | 16 mg/kg | 0.15 µM | 8.8 µM | 0.13 | 2.8 µM |
| CCCC[n+]1cccc(NC(=O)c2ccc(NC(=O)c3ccc(C(=O)Nc4ccc(C(=O)Nc5ccc[n+](CCCC)c5)cc4)cc3)cc2)c1.Cc1ccc(S(=O)(=O)[O-])cc1.Cc1ccc(S(=O)(=O)[O-])cc1 | 0.46 µM | 1.76 | 30 mg/kg | 58 mg/kg | 0.14 µM | 0.93 µM | 0.51 | 0.41 µM |
| C[n+]1ccc(Nc2ccc(NC(=O)c3ccc(Nc4cc[n+](C)c5c(Cl)cccc45)cc3)cc2)cc1.Cc1ccc(S(=O)(=O)[O-])cc1.Cc1ccc(S(=O)(=O)[O-])cc1 | 1.1 µM | 1.7 | 50 mg/kg | 55 mg/kg | 0.038 µM | 1.4 µM | 0.51 | 0.29 µM |
| CC[n+]1cccc(NC(=O)c2ccc(NC(=O)c3ccc(C(=O)Nc4ccc(C(=O)Nc5ccc[n+](CC)c5)cc4)cc3)cc2)c1.Cc1ccc(S(=O)(=O)[O-])cc1.Cc1ccc(S(=O)(=O)[O-])cc1 | 0.48 µM | 2.24 | 9.8 mg/kg | 33 mg/kg | 0.11 µM | 0.9 µM | -0.32 | 0.4 µM |
| C[n+]1ccc(Nc2ccc(NC(=O)c3ccc(Nc4cc[n+](C)c5ccccc45)cc3)cc2N)cc1.[I-].[I-] | 2.25 µM | 1.85 | 2.8 mg/kg | 8 mg/kg | 0.052 µM | 4.76 µM | 0.24 | 0.43 µM |
| Cc1cc(C(=O)Nc2ccc[n+](C)c2)ccc1NC(=O)c1ccc(C(=O)Nc2ccc(C(=O)Nc3ccc[n+](C)c3)cc2C)cc1.Cc1ccc(S(=O)(=O)[O-])cc1.Cc1ccc(S(=O)(=O)[O-])cc1 | 11.7 µM | 1.79 | 27 mg/kg | 40 mg/kg | 0.35 µM | 16.7 µM | 0.12 | 6 µM |
| C[n+]1ccc(Nc2ccc(NC(=O)c3ccc(Nc4cc[n+](C)c5ccccc45)cc3)cc2)cc1.[Br-].[Br-] | 1.4 µM | 2.23 | 2 mg/kg | 13 mg/kg | 0.036 µM | 3 µM | 0.29 | 0.16 µM |
| C[n+]1cccc(NC(=O)c2ccc(NC(=O)C34CCC(C(=O)Nc5ccc(C(=O)Nc6ccc[n+](C)c6)cc5)(CC3)CC4)cc2)c1.Cc1ccc(S(=O)(=O)[O-])cc1.Cc1ccc(S(=O)(=O)[O-])cc1 | 6.8 µM | 2 | 4.3 mg/kg | 24 mg/kg | 1.6 µM | 11 µM | 0.31 | 5.3 µM |
| C[n+]1ccc(Nc2ccc(NC(=O)c3ccc(C(=O)Nc4ccc(Nc5cc[n+](C)cc5)cc4)cc3)cc2)cc1.Cc1ccc(S(=O)(=O)[O-])cc1.Cc1ccc(S(=O)(=O)[O-])cc1 | 1.3 µM | 2.33 | 0.3 mg/kg | 3.1 mg/kg | 0.043 µM | 1.8 µM | 0.07 | 0.14 µM |
| C[n+]1ccc(Nc2ccc(NC(=O)c3ccc(Nc4cc[n+](C)c5ccc(N)cc45)cc3)cc2)cc1.[Br-].[Br-] | 0.66 µM | 2.35 | 1.2 mg/kg | 12 mg/kg | 0.048 µM | 1.05 µM | 0.07 | 0.09 µM |
| CC[n+]1ccc(Nc2ccc(NC(=O)c3ccc(Nc4cc[n+](CC)c5cc(N)ccc45)cc3N)cc2)cc1.[Br-].[Br-] | 0.52 µM | 2.39 | 1.4 mg/kg | 11 mg/kg | 0.054 µM | 1.11 µM | 0.07 | 0.13 µM |
| C/C(=N\NC(=N)N)c1ccc(C(=O)Nc2ccc(Nc3cc[n+](C)c4ccc(N)cc34)cc2)cc1.Cc1ccc(S(=O)(=O)O)cc1.Cc1ccc(S(=O)(=O)[O-])cc1 | 0.4 µM | 2.37 | 2.6 mg/kg | 40 mg/kg | 0.057 µM | 0.52 µM | -0.1 | 0.12 µM |
| C[n+]1ccc(Nc2ccc(NC(=O)c3ccc(Nc4cc[n+](C)c5c(N)cccc45)cc3)cc2)cc1.[I-].[I-] | 0.85 µM | 2.48 | 0.9 mg/kg | 60 mg/kg | 0.056 µM | 1.43 µM | -0.1 | 0.2 µM |
| C[n+]1cccc(NC(=O)c2ccc(NC(=O)c3ccc(C(=O)Nc4ccc[n+](C)c4)cc3)cc2)c1.Cc1ccc(S(=O)(=O)[O-])cc1.Cc1ccc(S(=O)(=O)[O-])cc1 | 11.2 µM | <1.4 | – | 4 mg/kg | 0.325 µM | 22 µM | -0.11 | 7.7 µM |
| C[n+]1ccc(Nc2ccc(NC(=O)c3ccc(Nc4cc[n+](C)c5ccccc45)cc3N)cc2N)cc1.[I-].[I-] | 1.76 µM | 1.78 | 15 mg/kg | 18 mg/kg | 0.12 µM | 3.17 µM | 0.08 | 0.79 µM |
| C[n+]1ccc(Nc2ccc(NC(=O)c3ccc(Nc4cc[n+](C)c5ccc(N)cc45)cc3)cc2N)cc1.[I-].[I-] | 0.71 µM | 2.18 | 0.7 mg/kg | 3 mg/kg | 0.067 µM | 1.3 µM | -0.03 | 0.23 µM |
